Columns and labels:
[1] = Example 5: chronic red eyes, patient satisfaction assessment, eld brimonidine vs Naphcon-A; type: in vivo, human; conditions: brimonidine at […], drops twice a day for three to five weeks, seven patients, all patients
Experimental: The treatment was through drops twice a day for three to five weeks. At the end, patient satisfaction assessment was conducted.

[2] = 0.03% brimonidine nasal spray, 0.9% saline vehicle, n of 1
[3] = FIGS. 5A-C: induction and reversal of rebound hyperemia in a patient's eyes; type: in vivo, human; conditions: brimonidine at […], right eye, after VISINE Original
Source text: FIG. 5A is a baseline visual appearance of two eyes of a patient with an ocular condition.

[4] = Example 2: Lasik prophylaxis, postoperative hyperemia, hemorrhage and flap dislocation; conditions: brimonidine 0.02%
[5] = brimonidine 0.01-[…] left eye vs tetrahydrozoline 0.05%, oxymetazoline […], naphazoline […] right eye; baseline redness 4/4
Source text: FIG. 4A is a baseline visual appearance of two eyes of a patient with an ocular condition.
In an average clinical situation, baseline redness is at 1-1.5/4.

Compound: Brc1c(N=C2NCCN2)ccc2nccnc12.O=C(O)C(O)C(O)C(=O)O [brimonidine, 5-bromo-6-(2-imidazolidinylideneamino)quinoxaline L-tartrate]
- patient-reported redness [1]: reduced redness
- duration of complete relief of moderate nasal congestion per application [2]: 3 to 5 h
- effect on VISINE Original induced rebound hyperemia [3]: reversing the VISINE Original® induced rebound hyperemia
- cosmetic appearance vs. no vasoconstrictor and vs. Naphcon-A ([4]; from day 1 after Lasik): much improved
- hyperemia in the majority of the 1+ or less hyperemic group ([4]; over 500 eyes): no or only trace hyperemia
- scleral whitening brightening effects [5]: significant scleral whitening brightening effects
